Results from US7902200B2, “Chemical compounds” (AstraZeneca AB, priority 2006, dated 2011).

Each molecule was assayed against T1, recombinant human pancreatic GLK (Homo sapiens, UniProt P35557) (assay: GKH1 variant of GLK enzymatic activity assay (manual bench-top rate assay)). Details: activation of GLK; 60 nmol/l GLK; rate over 5 minute window; no GLKRP.
T1 construct: 6-His (N); made in house; host or cells: E. coli BL21
T1 sequence (P35557 1-465): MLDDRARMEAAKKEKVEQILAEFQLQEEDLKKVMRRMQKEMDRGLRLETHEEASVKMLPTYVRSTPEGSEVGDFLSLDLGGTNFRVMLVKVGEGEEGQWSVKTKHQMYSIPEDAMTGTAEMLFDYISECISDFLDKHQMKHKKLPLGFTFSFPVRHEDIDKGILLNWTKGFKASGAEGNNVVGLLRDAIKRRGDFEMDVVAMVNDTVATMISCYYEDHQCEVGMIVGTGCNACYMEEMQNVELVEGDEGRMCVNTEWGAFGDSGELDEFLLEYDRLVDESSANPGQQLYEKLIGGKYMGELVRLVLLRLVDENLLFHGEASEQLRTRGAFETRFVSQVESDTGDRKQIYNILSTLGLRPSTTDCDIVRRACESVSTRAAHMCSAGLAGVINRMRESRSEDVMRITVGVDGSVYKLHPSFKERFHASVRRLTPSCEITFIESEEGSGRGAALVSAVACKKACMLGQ
Format: biochemical
Description: (§1) Enzymatic activity of recombinant human pancreatic GLK may be measured by incubating GLK, ATP and glucose. The rate of product formation may be determined by coupling the assay to a G-6-P dehydrogenase, NADP/NADPH system and measuring the linear increase with time of optical density at 340 nm (Brocklehurst et al (Diabetes 2004, 53, 535-541). Activation of GLK by compounds can be assessed using this assay in the presence or absence of GLKRP as described in Brocklehurst et al (Diabetes 2004, 53, 535-541).
(§2) One or both of two variants of this assay, GKH1 and GKH4, were used to test the compounds of the invention. The GKH1 assay is a manual, bench-top rate assay using 60 nmol/l of recombinant human pancreatic GLK. The GLK activity rate is measured over a 5 minute window using a Multiskan Ascent spectrophotometer. The GKH4 assay is an automated end-point assay using 10 nmol/l of recombinant human pancreatic GLK. The GLK activity is measured at 10 minutes after the initiation of the assay on a Perkin Elmer Envision spectrophotometer.

Cc1cnc(NC(=O)c2cc(Oc3ccc4c(c3)OCN(C)C4=O)cc(O[C@H]3CCN(C)C3=O)c2)cn1 [Example 15, 3-[(4-Methyl-5-oxo-2-oxa-4-azabicyclo[4.4.0]deca-6,8,10-trien-9-yl)oxy]-5-(1-methyl-2-oxo-pyrrolidin-3-yl)oxy-N-(5-methylpyrazin-2-yl)benzamide] and Cc1cnc(NC(=O)c2cc(Oc3ccc4c(c3)OCCN(C)S4(=O)=O)cc(O[C@H]3CCN(C)C3=O)c2)cn1 [Example 11, 3-[(5-methyl-6,6-dioxo-2-oxa-6-λ^6-thia-5-azabicyclo[5.4.0]undeca-8,10,12-trien-10-yl)oxy]-5-(1-methyl-2-oxo-pyrrolidin-3-yl)oxy-N-(5-methylpyrazin-2-yl)benzamide] are within 1.5-fold of each other in EC50: 100 nM for the first, 140 nM for the second.

First: Cc1cnc(NC(=O)c2cc(Oc3cnc(C(=O)N(C)C)cn3)cc(O[C@H]3CCN(C)C3=O)c2)cn1 [Example 24, N,N-Dimethyl-5-[3-[(3S)-1-methyl-2-oxo-pyrrolidin-3-yl]oxy-5-[(5-methylpyrazin-2-yl)carbamoyl]phenoxy]pyrazine-2-carboxamide]
Second: Cc1cnc(NC(=O)c2cc(Oc3ccc(C(=O)N4CCC4)nc3)cc(O[C@@H]3CCN(C)C3=O)c2)cn1 [Example 2, 3-[6-(Azetidine-1-carbonyl)pyridin-3-yl]oxy-5-[(3R)-1-methyl-2-oxo-pyrrolidin-3-yl]oxy-N-(5-methylpyrazin-2-yl)benzamide]
The EC50 of the first is 26-fold lower: 150 nM for the first, 3930 nM for the second.

With Cc1cnc(NC(=O)c2cc(Oc3ccc(C(=O)N4CCC4)nc3)cc(O[C@H]3CCN(C4CCC4)C3=O)c2)cn1 [Example 21, 3-[6-(Azetidine-1-carbonyl)pyridin-3-yl]oxy-5-[(3S)-1-cyclobutyl-2-oxo-pyrrolidin-3-yl]oxy-N-(5-methylpyrazin-2-yl)benzamide] the EC50 was 210 nM.

These molecules were tested against T1, recombinant human pancreatic GLK (assay: GKH4 variant of GLK enzymatic activity assay (automated end-point assay)). Details: activation of GLK; 10 nmol/l GLK; end-point at 10 minutes; no GLKRP.
Format: biochemical
Description: as §1, §2

Cc1cnc(NC(=O)c2cc(Oc3ccc4c(c3)OCN(C)C4=O)cc(O[C@H]3CCN(C)C3=O)c2)cn1 [Example 15, 3-[(4-Methyl-5-oxo-2-oxa-4-azabicyclo[4.4.0]deca-6,8,10-trien-9-yl)oxy]-5-(1-methyl-2-oxo-pyrrolidin-3-yl)oxy-N-(5-methylpyrazin-2-yl)benzamide] and Cc1cnc(NC(=O)c2cc(Oc3ccc4c(c3)OCCN(C)C4=O)cc(O[C@H]3CCN(C)C3=O)c2)cn1 [Example 16, 3-[(5-Methyl-6-oxo-2-oxa-5-azabicyclo[5.4.0]undeca-8,10,12-trien-10-yl)oxy]-5-[(3S)-1-methyl-2-oxo-pyrrolidin-3-yl]oxy-N-(5-methylpyrazin-2-yl)benzamide] are within 1.5-fold of each other in EC50: 350 nM for the first, 310 nM for the second.

Going from Cc1cnc(NC(=O)c2cc(Oc3cnc(C(=O)N(C)C)cn3)cc(O[C@H]3CCN(C)C3=O)c2)cn1 [Example 24, N,N-Dimethyl-5-[3-[(3S)-1-methyl-2-oxo-pyrrolidin-3-yl]oxy-5-[(5-methylpyrazin-2-yl)carbamoyl]phenoxy]pyrazine-2-carboxamide] to Cc1cnc(NC(=O)c2cc(Oc3ccc(C(=O)N(C)C)nc3)cc(O[C@H]3CCN(C)C3=O)c2)cn1 [Example 29, N,N-dimethyl-5-[3-[(3S)-1-methyl-2-oxo-pyrrolidin-3-yl]oxy-5-[(5-methylpyrazin-2-yl)carbamoyl]phenoxy]pyridine-2-carboxamide], the EC50 falls from 570 nM to 100 nM (5.7-fold). The second is the more potent here.

Compared with Cc1cnc(NC(=O)c2cc(Oc3ccc(C(=O)N4CCC4)nc3)cc(O[C@H]3CCN(C4CCC4)C3=O)c2)cn1 [Example 21, 3-[6-(Azetidine-1-carbonyl)pyridin-3-yl]oxy-5-[(3S)-1-cyclobutyl-2-oxo-pyrrolidin-3-yl]oxy-N-(5-methylpyrazin-2-yl)benzamide], Cc1cnc(NC(=O)c2cc(Oc3ccc(C(=O)N4CCC4)nc3)cc(OC3CCN(C4CCC4)C3=O)c2)cn1 (racemic) [Example 17, 3-[6-(Azetidine-1-carbonyl)pyridin-3-yl]oxy-5-(1-cyclobutyl-2-oxo-pyrrolidin-3-yl)oxy-N-(5-methylpyrazin-2-yl)benzamide] is 1.9-fold lower in EC50: 1110 nM for the first, 600 nM for the second.

Cc1cnc(NC(=O)c2cc(Oc3ccc(S(C)(=O)=O)cc3)cc(O[C@H]3CCN(C)C3=O)c2)cn1 [Example 7, 3-[(3S)-1-Methyl-2-oxo-pyrrolidin-3-yl]oxy-N-(5-methylpyrazin-2-yl)-5-(4-methylsulfonylphenoxy)benzamide] and Cc1cnc(NC(=O)c2cc(Oc3ccc(S(C)(=O)=O)nc3)cc(O[C@H]3CCN(C)C3=O)c2)cn1 [Example 28, 3-[(3S)-1-methyl-2-oxo-pyrrolidin-3-yl]oxy-N-(5-methylpyrazin-2-yl)-5-(6-methylsulfonylpyridin-3-yl)oxy-benzamide] are the same in EC50: 570 nM for the first, 570 nM for the second.

Compared with Cc1cnc(NC(=O)c2cc(Oc3ccc(C(=O)N(C)C)cc3Cl)cc(O[C@H]3CCN(C)C3=O)c2)cn1 [Example 26, 3-[2-Chloro-4-(dimethylcarbamoyl)phenoxy]-5-[(3S)-1-methyl-2-oxo-pyrrolidin-3-yl]oxy-N-(5-methylpyrazin-2-yl)benzamide], Cc1cnc(NC(=O)c2cc(Oc3ncc(C(=O)N4CCC4)cc3Cl)cc(O[C@H]3CCN(C)C3=O)c2)cn1 [Example 6, 3-[5-(Azetidine-1-carbonyl)-3-chloro-pyridin-2-yl]oxy-5-[(3S)-1-methyl-2-oxo-pyrrolidin-3-yl]oxy-N-(5-methylpyrazin-2-yl)benzamide] is 2.1-fold lower in EC50: 390 nM for the first, 190 nM for the second.

First: CCN1CCC(Oc2cc(Oc3ccc(C(=O)N4CCC4)nc3)cc(C(=O)Nc3cnc(C)cn3)c2)C1=O (racemic) [Example 10, 3-[6-(Azetidine-1-carbonyl)pyridin-3-yl]oxy-5-(1-ethyl-2-oxo-pyrrolidin-3-yl)oxy-N-(5-methylpyrazin-2-yl)benzamide]
Second: Cc1cnc(NC(=O)c2cc(Oc3ccc(C(=O)N4CCC4)nc3)cc(O[C@H]3CCN(C4CC4)C3=O)c2)cn1 [Example 19, 3-[6-(Azetidine-1-carbonyl)pyridin-3-yl]oxy-5-[(3S)-1-cyclopropyl-2-oxo-pyrrolidin-3-yl]oxy-N-(5-methylpyrazin-2-yl)benzamide]
The EC50 of the first is 2.3-fold lower: 260 nM for the first, 590 nM for the second. The first is the more potent here.

Compared with Cc1cnc(NC(=O)c2cc(Oc3ccc4c(c3)OCCN(C)S4(=O)=O)cc(O[C@H]3CCN(C)C3=O)c2)cn1 [Example 11, 3-[(5-methyl-6,6-dioxo-2-oxa-6-λ^6-thia-5-azabicyclo[5.4.0]undeca-8,10,12-trien-10-yl)oxy]-5-(1-methyl-2-oxo-pyrrolidin-3-yl)oxy-N-(5-methylpyrazin-2-yl)benzamide], Cc1cnc(NC(=O)c2cc(Oc3ccc4c(c3)OCCNS4(=O)=O)cc(O[C@H]3CCN(C)C3=O)c2)cn1 [Example 27, 3-[(6,6-dioxo-2-oxa-6-λ^6-thia-5-azabicyclo[5.4.0]undeca-8,10,12-trien-10-yl)oxy]-5-[(3S)-1-methyl-2-oxo-pyrrolidin-3-yl]oxy-N-(5-methylpyrazin-2-yl)benzamide] is 2.1-fold higher in EC50: 310 nM for the first, 660 nM for the second.

First: Cc1csc(NC(=O)c2cc(Oc3cnc(C(=O)N(C)C)cn3)cc(O[C@H]3CCN(C)C3=O)c2)n1 [Example 32, N,N-Dimethyl-5-[3-[(3S)-1-methyl-2-oxo-pyrrolidin-3-yl]oxy-5-[(4-methyl-1,3-thiazol-2-yl)carbamoyl]phenoxy]pyrazine-2-carboxamide]
Second: Cc1nsc(NC(=O)c2cc(Oc3cnc(C(=O)N(C)C)cn3)cc(O[C@H]3CCN(C)C3=O)c2)n1 [Example 31, N,N-dimethyl-5-[3-[(3S)-1-methyl-2-oxo-pyrrolidin-3-yl]oxy-5-[(3-methyl-1,2,4-thiadiazol-5-yl)carbamoyl]phenoxy]pyrazine-2-carboxamide]
The EC50 of the first is 18-fold lower: 60 nM for the first, 1080 nM for the second.

Compared with Cc1cnc(NC(=O)c2cc(Oc3ccc4c(c3Cl)OCCN(C)C4=O)cc(O[C@H]3CCN(C)C3=O)c2)cn1 [Example 14, 3-[(11-Chloro-5-methyl-6-oxo-2-oxa-5-azabicyclo[5.4.0]undeca-8,10,12-trien-10-yl)oxy]-5-[(3S)-1-methyl-2-oxo-pyrrolidin-3-yl]oxy-N-(5-methylpyrazin-2-yl)benzamide], Cc1cnc(NC(=O)c2cc(Oc3ccc4c(c3)OCCCS4(=O)=O)cc(O[C@H]3CCN(C)C3=O)c2)cn1 [Example 9, 3-[(2,2-Dioxo-6-oxa-2-λ^6-thiabicyclo[5.4.0]undeca-7,9,11-trien-9-yl)oxy]-5-[(3S)-1-methyl-2-oxo-pyrrolidin-3-yl]oxy-N-(5-methylpyrazin-2-yl)benzamide] is 1.5-fold higher in EC50: 80 nM for the first, 120 nM for the second.

First: Cc1csc(NC(=O)c2cc(Oc3cnc(C(=O)N4CCC4)cn3)cc(O[C@@H]3CCN(C)C3=O)c2)n1 [Example 4, 3-[5-(Azetidine-1-carbonyl)pyrazin-2-yl]oxy-5-[(3R)-1-methyl-2-oxo-pyrrolidin-3-yl]oxy-N-(4-methyl1,3-thiazol-2-yl)benzamide]
Second: Cc1csc(NC(=O)c2cc(Oc3cnc(C(=O)N4CCC4)cn3)cc(O[C@H]3CCN(C)C3=O)c2)n1 [Example 3, 3-[5-(Azetidine-1-carbonyl)pyrazin-2-yl]oxy-5-[(3S)-1-methyl-2-oxo-pyrrolidin-3-yl]oxy-N-(4-methyl1,3-thiazol-2-yl)benzamide]
The EC50 of the first is 63-fold higher: 18300 nM for the first, 290 nM for the second.

Cc1cnc(NC(=O)c2cc(Oc3ccc(C(=O)N4CCC4)cc3)cc(O[C@H]3CCN(C)C3=O)c2)cn1 [Example 8, 3-[4-(Azetidine-1-carbonyl)phenoxy]-5-[(3S)-1-methyl-2-oxo-pyrrolidin-3-yl]oxy-N-(5-methylpyrazin-2-yl)benzamide] and CN1CC[C@H](Oc2cc(Oc3ccc(C(=O)N4CCC4)cc3)cc(C(=O)Nc3cc[nH]n3)c2)C1=O [Example 5, 3-[4-(Azetidine-1-carbonyl)phenoxy]-5-[(3S)-1-methyl-2-oxo-pyrrolidin-3-yl]oxy-N-(1H-pyrazol-3-yl)benzamide] are within 1.5-fold of each other in EC50: 190 nM for the first, 150 nM for the second.

CN1COc2cc(Oc3cc(O[C@H]4CCN(C)C4=O)cc(C(=O)Nc4cc[nH]n4)c3)ccc2C1=O [Example 30, 3-[(9-methyl-10-oxo-7-oxa-9-azabicyclo[4.4.0]deca-2,4,11-trien-4-yl)oxy]-5-[(3S)-1-methyl-2-oxo-pyrrolidin-3-yl]oxy-N-(1H-pyrazol-3-yl)benzamide] was tested, and the EC50 was 60 nM.
